Reference: US20050245399A1, “Pyrazole derivatives as herbicidal compositions containing them” (ISHIHARA SANGYO KAISHA, LTD., priority 2004, published 2005)

Key:
Format in all cases: in vivo
[1] = system: barnyardgrass (Echinochloa crus-galli L.): ECHCG; test: Test Example 1 pre-emergence herbicidal activity, ECHCG; settings: Rate 63 g a.i./ha, visually observed 20th to 23rd day after application
How it was run: (§1)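 Herbicidal effect in pre-emergence treatment: formulated compound sprayed at 500 L/ha water one day after sowing in upland field soil pots, with visual 0–100% growth-control scores recorded 20–23 days after application.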

[2] = system: crabgrass (Digitaria sanguinalis L.): DIGSA; test: Test Example 1 pre-emergence herbicidal activity, DIGSA; settings: Rate 63 g a.i./ha, visually observed 20th to 23rd day after application
How it was run: as §1

[3] = system: green foxtail (Setaria viridis L.): SETVI; test: Test Example 1 pre-emergence herbicidal activity, SETVI; settings: Rate 63 g a.i./ha, visually observed 20th to 23rd day after application
How it was run: as §1

[4] = system: redroot pigweed (Amaranthus retroflexus L.): AMARE; test: Test Example 1 pre-emergence herbicidal activity, AMARE; settings: Rate 63 g a.i./ha, visually observed 20th to 23rd day after application
How it was run: as §1

[5] = system: prickly sida (Sida spinosa L.): SEDSP; test: Test Example 1 pre-emergence herbicidal activity, SIDSP; settings: Rate 63 g a.i./ha, visually observed 20th to 23rd day after application
How it was run: as §1

[6] = system: velvetleaf (Abutilon theophrasti): ABUTH; test: Test Example 1 pre-emergence herbicidal activity, ABUTH; settings: Rate 63 g a.i./ha, visually observed 20th to 23rd day after application
How it was run: as §1

[7] = system: rice (Oryza sativa L.): ORYSA; test: Test Example 1 pre-emergence herbicidal activity, ORYSA; settings: Rate 63 g a.i./ha, visually observed 20th to 23rd day after application
How it was run: as §1

[8] = system: wheat (Triticum aestivum L.): TRZAX; test: Test Example 1 pre-emergence herbicidal activity, TRZAX; settings: Rate 63 g a.i./ha, visually observed 20th to 23rd day after application
How it was run: as §1

[9] = system: corn (Zea mays L.): ZEAMX; test: Test Example 1 pre-emergence herbicidal activity, ZEAMX; settings: Rate 63 g a.i./ha, visually observed 20th to 23rd day after application
How it was run: as §1

[10] = system: soybean (Glycine max Merr.): GLXMA; test: Test Example 1 pre-emergence herbicidal activity, GLXMA; settings: Rate 63 g a.i./ha, visually observed 20th to 23rd day after application
How it was run: as §1

[11] = system: barnyardgrass (Echinochloa crus-galli L.), ECHCG; test: Test Example 2 post-emergence (foliage treatment) herbicidal activity, ECHCG
How it was run: (§2)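 A small sprayer delivered the diluted WP or EC formulation (500 L/ha water, 0.1% v/v spreader) over emerged seedlings in upland soil pots. Damage relative to untreated plants was graded visually from 0 to 100% three weeks or so later (days 20-23).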

[12] = system: crabgrass (Digitaria sanguinalis L.), DIGSA; test: Test Example 2 post-emergence (foliage treatment) herbicidal activity, DIGSA
How it was run: as §2

[13] = system: green foxtail (Setaria viridis L.), SETVI; test: Test Example 2 post-emergence (foliage treatment) herbicidal activity, SETVI
How it was run: (§3)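 Foliar spray of formulated compound (500 L/ha dilution water, 0.1% v/v spreader) onto young potted plants at defined leaf stages. Scored 0-100% by visual inspection 20-23 d post-spray.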

[14] = system: redroot pigweed (Amaranthus retroflexus L.), AMARE; test: Test Example 2 post-emergence (foliage treatment) herbicidal activity, AMARE
How it was run: as §2

[15] = system: prickly sida (Sida spinosa L.), SIDSP; test: Test Example 2 post-emergence (foliage treatment) herbicidal activity, SIDSP
How it was run: as §3

[16] = system: velvetleaf (Abutilon theophrasti), ABUTH; test: Test Example 2 post-emergence (foliage treatment) herbicidal activity, ABUTH
How it was run: as §3

[17] = system: rice (Oryza sativa L.), ORYSA; test: Test Example 2 post-emergence (foliage treatment) herbicidal activity, ORYSA
How it was run: as §2

[18] = system: wheat (Triticum aestivum L.), TRZAX; test: Test Example 2 post-emergence (foliage treatment) herbicidal activity, TRZAX
How it was run: as §3

[19] = system: corn (Zea mays L.), ZEAMX; test: Test Example 2 post-emergence (foliage treatment) herbicidal activity, ZEAMX
How it was run: as §3

[20] = system: soybean (Glycine max Merr.), GLXMA; test: Test Example 2 post-emergence (foliage treatment) herbicidal activity, GLXMA
How it was run: as §3

[21] = system: barnyardgrass (Echinochiloa oryzicola: ECHOR); test: Test Example 3 water application herbicidal activity (paddy), ECHOR; settings: 63 g a.i./ha, water application under submerged condition at 0.5 leaf stage, visually observed 14th day after application; 0 = untreated control, 100 = complete kill
How it was run: (§4)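 Flooded paddy-soil pots in greenhouse; ECHOR and SCPJO sown, SAGPY tubers planted a day later, compound applied into 3–4 cm water at weeds' 0.5-leaf stage. Rice transplanted at 2-leaf stage, treated day 4 after transplanting. Visual growth control 0–100% at 14 days (weeds) and 21 days (rice) after application.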

[22] = system: japanese bulrush (Scirpus juncoides: SCPJO); test: Test Example 3 water application herbicidal activity (paddy), SCPJO; settings: 63 g a.i./ha, water application under submerged condition at 0.5 leaf stage, visually observed 14th day after application; 0 = untreated control, 100 = complete kill
How it was run: as §4

[23] = system: japanese ribbon wapato (Sagittaria pygmaea: SA GPY); test: Test Example 3 water application herbicidal activity (paddy), SAGPY; settings: 63 g a.i./ha, water application under submerged condition, tubers planted, visually observed 14th day after application; 0 = untreated control, 100 = complete kill
How it was run: as §4

[24] = system: rice (Oryza sativa L.: ORYSA); test: Test Example 3 water application herbicidal activity (paddy), transplanted rice ORYSA; settings: 63 g a.i./ha, water application 4th day after transplantation of 2 leaf stage rice, visually observed 21st day after application; 0 = untreated control, 100 = complete kill
How it was run: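 Compound, as diluted wettable powder or emulsifiable concentrate, was pipetted into flood water at a set active-ingredient dose. Weeds were treated at 0.5-leaf stage after sowing or tuber planting; 2-leaf rice 4 days post-transplant. Control scored visually, 0 untreated to 100 complete kill, weeds day 14, rice day 21.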

Row | SMILES | Pre-emergence Herbicidal Activity ECHCG (growth controlling degree) [1] [%] | Pre-emergence Herbicidal Activity DIGSP (growth controlling degree) [2] [%] | Pre-emergence Herbicidal Activity SETVI (growth controlling degree) [3] [%] | Pre-emergence Herbicidal Activity AMARE (growth controlling degree) [4] [%] | Pre-emergence Herbicidal Activity SIDSP (growth controlling degree) [5] [%] | Pre-emergence Herbicidal Activity ABUTH (growth controlling degree) [6] [%] | Pre-emergence Herbicidal Activity ORYSA (growth controlling degree) [7] [%] | Pre-emergence Herbicidal Activity TRZAX (growth controlling degree) [8] [%] | Pre-emergence Herbicidal Activity ZEAMX (growth controlling degree) [9] [%] | Pre-emergence Herbicidal Activity GLXMA (growth controlling degree) [10] [%] | growth controlling degrees (%) ECHOR [21] [%] | growth controlling degrees (%) SCPJO [22] [%] | growth controlling degrees (%) SAGPY [23] [%] | growth controlling degrees (%) ORYSA [24] [%] | growth controlling degree, ECHCO ([11]; 63 g a.i./ha) [%] | growth controlling degree, DIGSP ([12]; 63 g a.i./ha) [%] | growth controlling degree, SETVI ([13]; 63 g a.i./ha) [%] | growth controlling degree, AMARE ([14]; 63 g a.i./ha) [%] | growth controlling degree, SIDSP ([15]; 63 g a.i./ha) [%] | growth controlling degree, ABUTH ([16]; 63 g a.i./ha) [%] | further results
1 | COc1c(Cl)cc(F)c(-c2nn(C)c(OC(F)F)c2Cl)c1N [Compound 1-90, 3-chloro-6-[4-chloro-5-(difluoromethoxy)-1-methyl-1H-pyrazol-3-yl]-5-fluoro-2-methoxybenzenamine] | 98 | 100 | 100 | 100 | 98 | 100 | 60 | 50 | 30 | 40 | 100 | 98 | 98 | 50 | – | – | – | – | – | – | growth controlling degree, ECHCO ([11]; 31 g a.i./ha): 100%; growth controlling degree, DIGSP ([12]; 31 g a.i./ha): 100%; growth controlling degree, SETVI ([13]; 31 g a.i./ha): 100%; growth controlling degree, AMARE ([14]; 31 g a.i./ha): 100%; growth controlling degree, SIDSP ([15]; 31 g a.i./ha): 100%; growth controlling degree, ABUTH ([16]; 31 g a.i./ha): 100%; growth controlling degree, ORYSA ([17]; 31 g a.i./ha): 98%; growth controlling degree, TRZAX ([18]; 31 g a.i./ha): 95%; growth controlling degree, ZEAMX ([19]; 31 g a.i./ha): 98%; growth controlling degree, GLXMA ([20]; 31 g a.i./ha): 98%
2 | COc1ccc(C(=O)Nc2c(OC)c(Cl)cc(F)c2-c2nn(C)c(OC(F)F)c2Cl)cc1 [Compound 1-29] | 80 | 100 | 100 | 100 | 100 | 100 | 40 | 10 | 20 | 20 | 100 | 50 | 60 | 50 | 100 | 100 | 100 | 100 | 100 | 95 | growth controlling degree, ORYSA ([17]; 63 g a.i./ha): 80%; growth controlling degree, TRZAX ([18]; 63 g a.i./ha): 50%; growth controlling degree, ZEAMX ([19]; 63 g a.i./ha): 60%; growth controlling degree, GLXMA ([20]; 63 g a.i./ha): 100%
3 | COc1c(Cl)cc(F)c(-c2nn(C)c(OC(F)F)c2Cl)c1NC(=O)c1cccc(Br)c1 [Compound 1-27] | 30 | 100 | 80 | 100 | 80 | 70 | 20 | 0 | 0 | 20 | 100 | 70 | 98 | 50 | 100 | 100 | 100 | 100 | 70 | 100 | growth controlling degree, ORYSA ([17]; 63 g a.i./ha): 80%; growth controlling degree, TRZAX ([18]; 63 g a.i./ha): 30%; growth controlling degree, ZEAMX ([19]; 63 g a.i./ha): 60%; growth controlling degree, GLXMA ([20]; 63 g a.i./ha): 70%
4 | COc1c(Cl)cc(F)c(-c2nn(C)c(OC(F)F)c2Cl)c1NC(=O)C=Cc1c(Cl)cccc1Cl [Compound 1-252] | 30 | 40 | 50 | 100 | 20 | 50 | 10 | 10 | 0 | 0 | 100 | 30 | 60 | 10 | 100 | 95 | 100 | 100 | 100 | 100 | growth controlling degree, ORYSA ([17]; 63 g a.i./ha): 50%; growth controlling degree, TRZAX ([18]; 63 g a.i./ha): 50%; growth controlling degree, ZEAMX ([19]; 63 g a.i./ha): 50%; growth controlling degree, GLXMA ([20]; 63 g a.i./ha): 80%
